Molecules are shown by their SMILES.

Experiment [1] relates to RPE and PRP dual cell aggregates. Kind of experiment: Dual cell aggregate formation in thaw medium with or without Y-27632 (phase contrast). The experiment is classed as cell-based, human. The conditions noted are these: Y-27632 in thaw medium (RPE-MM), 1 RPE:8 PRP, compared with thaw without Y-27632. As to the method: (§1) To characterize a dual cell aggregate culture, RPE were thawed in RPE-MM and PRP were thawed in RMN. If PRP were thawed as aggregates, either all aggregates or a sample of aggregates were TrypLE dissociated. Both cell types were counted using a ViCELL XR. RPE and PRP were combined at a desired cell ratio and cell number in RPE-MM and placed in a ULA T-75 flask on a belly dancer at 16-18 RPM to permit aggregate formation. Alternately, aggregates could be formed in a PBS mini vessel. To test in vivo function, some aggregates were transplanted into the subretinal space of a rat retina two days after aggregate formation. Surgery was performed to analyze the retinas. Aggregates or rat retinas were cryosectioned and analyzed by immunocytochemistry.
Dual cell aggregate formation without Y-27632 in thaw medium: As a first attempt to co-culture RPE and PRP as aggregates, RPE and PRP were thawed as single cells at a ratio of 1 RPE:3 PRP. Phase contrast images were captured at various time points (FIG. 1). […] However, after 21 and 69 days, aggregates had formed and appeared to be fairly regular, though skewed to a high RPE ratio, relative to PRP. Based on this experiment, all future experiments used the ROCK inhibitor Y-27632 when thawing RPE and maintained a lower RPE:PRP ratio. […]

Experiment [2] has the same test system. Kind of experiment: Effect of PGE-2 on long-term dual cell aggregate culture (immunocytochemistry). In kind it is cell-based, human. The conditions noted are these: with vs without PGE2. As to the method:
as §1
Effect of PGE-2 on long-term dual cell aggregate culture: During RPE culture, Prostaglandin E2 (PGE-2) is added to the culture medium from day 54 to day 68 of differentiation. PGE-2 is a hormone that stimulates RPE primary cilia formation and polarization, and its effect was tested on the dual cell aggregates (FIGS. 3-5). With this formulation of RPE and PRP, RPE generally appeared to form a majority of the aggregate, even after one month of culture. PRP did appear to mature after two months, indicated by the presence of PRPH2, an outer segment marker.

For `C[C@@H](N)[C@H]1CC[C@H](C(=O)Nc2ccncc2)CC1` [Condition Y-27632], the aggregate formation efficiency result in experiment [1] was “qualitatively more efficient”. Regarding `CCCCC[C@H](O)/C=C/[C@H]1[C@H](O)CC(=O)[C@@H]1C/C=C\CCCC(=O)O` [PGE2, Prostaglandin E2], the “PRP organization in dual cell aggregates” value in experiment [2] (one month after aggregate formation, initial ratio 1 RPE:8 PRP) was “Differences in PRP organization were apparent”. Besides, the “RPE organization or rod formation in dual cell aggregates” value in experiment [2] (one month of culture) is on record as “did not show striking differences”.
